Tests used:
Type in all cases: in vivo
[1] = tested on: Diabrotica balteata; assay: Diabrotica balteata (corn root worm), maize sprouts sprayed, L2 larvae; details: 96 h, application rate of 200 ppm, 4 days after infestation, read-out: effect in at least one of the two categories (mortality or growth inhibition)
Description: Diabrotica balteata (Corn Root Worm)
Maize sprouts placed onto an agar layer in 24-well microtiter plates were treated with aqueous test solutions prepared from 10′000 ppm DMSO stock solutions by spraying. After drying, the plates were infested with L2 larvae (6 to 10 per well). The samples were assessed for mortality and growth inhibition in comparison to untreated samples 4 days after infestation.
(§1) The following compounds gave an effect of at least 80% in at least one of the two categories (mortality or growth inhibition) at an application rate of 200 ppm: […]

[2] = tested on: Spodoptera littoralis; assay: Spodoptera littoralis (Egyptian cotton leaf worm), cotton leaf discs sprayed, L1 larvae; details: foliar, 72 h, application rate of 200 ppm, 3 days after infestation, read-out: control (mortality, anti-feeding effect, growth inhibition)
Description: Spodoptera littoralis (Egyptian Cotton Leaf Worm)
Cotton leaf discs were placed onto agar in 24-well microtiter plates and sprayed with aqueous test solutions prepared from 10′000 ppm DMSO stock solutions. After drying the leaf discs were infested with five L1 larvae. The samples were assessed for mortality, anti-feeding effect, and growth inhibition in comparison to untreated samples 3 days after infestation. Control of Spodoptera littoralis by a test sample is given when at least one of the categories mortality, anti-feedant effect, and growth inhibition is higher than the untreated sample.

[3] = tested on: Euschistus heros; assay: Euschistus heros (neotropical brown stink bug), soybean leaves sprayed, N2 nymphs; details: 120 h, application rate of 200 ppm, 5 days after infestation, read-out: effect in at least one of the two categories (mortality or growth inhibition)
Description: Euschistus heros (Neotropical Brown Stink Bug)
Soybean leaves on agar in 24-well microtiter plates were sprayed with aqueous test solutions prepared from 10′000 ppm DMSO stock solutions. After drying the leaves were infested with N2 nymphs. The samples were assessed for mortality and growth inhibition in comparison to untreated samples 5 days after infestation.
as §1

[4] = tested on: Thrips tabaci; assay: Thrips tabaci (onion thrips) feeding/contact activity, sunflower leaf discs; details: foliar, 144 h, application rate of 200 ppm, mixed ages, 6 days after infestation
Description: Thrips tabaci (Onion Thrips) Feeding/Contact Activity
Sunflower leaf discs were placed on agar in 24-well microtiter plates and sprayed with aqueous test solutions prepared from 10′000 ppm DMSO stock solutions. After drying the leaf discs were infested with a thrips population of mixed ages. The samples were assessed for mortality 6 days after infestation.

[5] = tested on: Myzus persicae; assay: Myzus persicae (green peach aphid): feeding/contact activity, sunflower leaf discs; details: foliar, 144 h, application rate of 200 ppm, mixed ages, 6 days after infestation
Description: Myzus persicae (Green Peach Aphid): Feeding/Contact Activity
Sunflower leaf discs were placed onto agar in a 24-well microtiter plate and sprayed with aqueous test solutions prepared from 10′000 ppm DMSO stock solutions. After drying, the leaf discs were infested with an aphid population of mixed ages. The samples were assessed for mortality 6 days after infestation.

Row | Compound | percent effect (mortality or growth inhibition) at 200 ppm [1] | mortality at 200 ppm [2] | percent effect (mortality or growth inhibition) at 200 ppm [3] | mortality at 200 ppm [4] | mortality at 200 ppm [5]
1 | Cn1ccc2n1c(=O)c(-c1cc(Cl)cc(Cl)c1)c([O-])[n+]2Cc1cnc(Cl)s1 [Compound A1, 4-[(2-chlorothiazol-5-yl)methyl]-6-(3,5-dichlorophenyl)-1-methyl-7-oxo-pyrazolo[1,5-a]pyrimidin-4-ium-5-olate] | ≥ 80% | ≥ 80% |  |  | 
2 | Cn1ccc2n1c(=O)c(-c1cccc(C(F)(F)F)c1)c([O-])[n+]2CCC#N [Compound B2, 4-(2-cyanoethyl)-1-methyl-7-oxo-6-[3-(trifluoromethyl)phenyl]pyrazolo[1,5-a]pyrimidin-4-ium-5-olate] | ≥ 80% |  | ≥ 80% | ≥ 80% | 
3 | Cn1ccc2n1c(=O)c(-c1cc(Cl)cc(Cl)c1)c([O-])[n+]2CCn1cncn1 [Compound B21] |  |  |  |  | ≥ 80%

Reference: US20200392138A1, “PESTICIDALLY ACTIVE MESOIONIC HETEROCYCLIC COMPOUNDS” (Syngenta Participations AG, priority 2017, published 2020)
